A value given as a limit tells only on which side of the number the result lay.

A short description of data set [1]: solubility of cyanidin in water. Type of data set: physicochemical.
A short description of data set [2]: stability of cyanidin in solution. It counts as physicochemical.

Broadly, the solubility is the dissolved amount per volume that the medium holds. The compound `Oc1cc(O)c2cc(O)c(-c3ccc(O)c(O)c3)[o+]c2c1` [cyanidin] gave a solubility in data set [1] of 49 µg/mL. Besides, the stability in water result in data set [2] (in water at 49 mg/L) is recorded as “degrade within minutes”. For the same compound, in data set [2] (pH of the solution), the “pH of highest stability” value is reported as less than 5.0.

For the origin of these results see patent publication US20240191273A1, “ANTHOCYANIN BIOPRODUCTION IN A CELL-FREE MANUFACTURING SYSTEM” (DEBUT BIOTECHNOLOGY, INC., priority 2021, published 2024).
